Like-named read-outs stand apart in the source and are kept apart here.

The values below come from patent publication US20110275094A1, “PHOSPHORYLATED FMS-RELATED TYROSINE KINASE 3 BIOMARKER ASSAY” (priority 2008, published 2011).

The subject of data set [1] is peripheral blast / bone marrow blast. How it is done:
The samples were then flash frozen in −70° C. A small number of patient samples were frozen unlysed and lysed afterwards.

Data set [2] can be described thus: AC220 phase I study, tolerability. The settings on record: QD, patients of phase I study. The data set is classed as in vivo. The source says: Thus, the pFLT3 ELISA of the invention successfully yielded useful pharmacodynamic data that not only guided the decision to change the dosing schedule from intermittent to continuous, but also guided the selection of the starting dose level for the 28-day continuous schedule, when information on dose limiting toxicity or maximum tolerated dose was still unavailable.

For the compound `CC(C)(C)c1cc(NC(=O)Nc2ccc(-c3cn4c(n3)sc3cc(OCCN5CCOCC5)ccc34)cc2)no1` [AC220], in data set [1] (Patient A), the “bone marrow blast percentage” value is “appeared to reduce bone marrow blast percentage”. In addition, the protocol defined response entry is given as “CRp/PR” in data set [1] (Patient D) and “CRi” in data set [1] (Patient E). This compound had a maximum tolerated dose in data set [2] greater than 300 mg per day.
